“And” between values parts separate entries of the source, which are not always exact repeats. Identical values can stand only once. ± gives the expanded uncertainty stated by the source.
Conditions: Hot wire method

CCF [fluoroethane]
Liquid
Conditions	thermal conductivity
233.99 K	0.1496 ± 0.006 W/m/K
234 K	0.1487 ± 0.006 W/m/K
234.01 K	0.1487 ± 0.006 W/m/K
234.32 K	0.1483 ± 0.006 W/m/K and 0.1482 ± 0.006 W/m/K and 0.1492 ± 0.006 W/m/K
234.57 K	0.1496 ± 0.006 W/m/K
234.63 K	0.1492 ± 0.006 W/m/K
234.64 K	0.149 ± 0.006 W/m/K
244.01 K	0.1429 ± 0.0057 W/m/K
244.04 K	0.1429 ± 0.0057 W/m/K and 0.1423 ± 0.0057 W/m/K
244.22 K	0.1424 ± 0.0057 W/m/K
244.25 K	0.143 ± 0.0057 W/m/K
244.26 K	0.1433 ± 0.0058 W/m/K
244.5 K	0.1426 ± 0.0057 W/m/K
244.51 K	0.142 ± 0.0057 W/m/K
244.54 K	0.1426 ± 0.0057 W/m/K
253.79 K	0.1362 ± 0.0055 W/m/K and 0.1361 ± 0.0055 W/m/K
253.8 K	0.1362 ± 0.0055 W/m/K
254.08 K	0.1364 ± 0.0055 W/m/K
254.09 K	0.1368 ± 0.0055 W/m/K and 0.1363 ± 0.0055 W/m/K
254.12 K	0.1357 ± 0.0054 W/m/K
254.14 K	0.135 ± 0.0054 W/m/K
254.15 K	0.1346 ± 0.0054 W/m/K
254.36 K	0.1352 ± 0.0054 W/m/K
254.37 K	0.1358 ± 0.0055 W/m/K
254.41 K	0.1355 ± 0.0054 W/m/K
254.71 K	0.1359 ± 0.0055 W/m/K
254.75 K	0.1355 ± 0.0054 W/m/K
254.79 K	0.1354 ± 0.0054 W/m/K
263.94 K	0.1286 ± 0.0052 W/m/K
263.95 K	0.128 ± 0.0052 W/m/K and 0.1283 ± 0.0052 W/m/K
264.16 K	0.1283 ± 0.0052 W/m/K
264.17 K	0.1287 ± 0.0052 W/m/K
264.19 K	0.1288 ± 0.0052 W/m/K
264.43 K	0.1285 ± 0.0052 W/m/K
264.51 K	0.1293 ± 0.0052 W/m/K and 0.129 ± 0.0052 W/m/K
274.37 K	0.1215 ± 0.0049 W/m/K
274.39 K	0.1214 ± 0.0049 W/m/K
274.4 K	0.1213 ± 0.0049 W/m/K
274.62 K	0.1218 ± 0.0049 W/m/K
274.64 K	0.1224 ± 0.0049 W/m/K
274.66 K	0.122 ± 0.0049 W/m/K
274.95 K	0.1224 ± 0.0049 W/m/K
274.97 K	0.1224 ± 0.0049 W/m/K
274.98 K	0.1226 ± 0.0049 W/m/K
284.17 K	0.1146 ± 0.0046 W/m/K
284.22 K	0.1146 ± 0.0046 W/m/K
284.23 K	0.1153 ± 0.0046 W/m/K
284.43 K	0.1154 ± 0.0046 W/m/K
284.46 K	0.1155 ± 0.0046 W/m/K
284.47 K	0.1152 ± 0.0046 W/m/K
284.78 K	0.1163 ± 0.0047 W/m/K
284.8 K	0.1164 ± 0.0047 W/m/K
284.81 K	0.1162 ± 0.0047 W/m/K
294.43 K	0.1097 ± 0.0044 W/m/K
294.59 K	0.1098 ± 0.0044 W/m/K
294.63 K	0.1109 ± 0.0045 W/m/K and 0.1095 ± 0.0044 W/m/K
294.64 K	0.1105 ± 0.0044 W/m/K
294.65 K	0.1103 ± 0.0044 W/m/K
294.7 K	0.1103 ± 0.0044 W/m/K
294.89 K	0.1094 ± 0.0044 W/m/K
294.9 K	0.1096 ± 0.0044 W/m/K
294.91 K	0.1093 ± 0.0044 W/m/K
294.94 K	0.1112 ± 0.0045 W/m/K and 0.1104 ± 0.0044 W/m/K
294.95 K	0.111 ± 0.0045 W/m/K
295.22 K	0.11 ± 0.0044 W/m/K and 0.1098 ± 0.0044 W/m/K
304.39 K	0.1056 ± 0.0043 W/m/K
304.4 K	0.1056 ± 0.0043 W/m/K
304.41 K	0.1057 ± 0.0043 W/m/K
304.67 K	0.1054 ± 0.0042 W/m/K
304.68 K	0.1056 ± 0.0043 W/m/K and 0.1052 ± 0.0042 W/m/K
305.07 K	0.1055 ± 0.0042 W/m/K
305.19 K	0.1057 ± 0.0043 W/m/K and 0.1058 ± 0.0043 W/m/K
314.36 K	0.1007 ± 0.004 W/m/K and 0.1002 ± 0.004 W/m/K
314.38 K	0.1003 ± 0.004 W/m/K
314.4 K	0.1003 ± 0.004 W/m/K and 0.1012 ± 0.0041 W/m/K
314.46 K	0.1013 ± 0.0041 W/m/K
314.68 K	0.1009 ± 0.0041 W/m/K
314.69 K	0.1008 ± 0.004 W/m/K
314.7 K	0.1003 ± 0.004 W/m/K
314.71 K	0.1011 ± 0.0041 W/m/K and 0.1008 ± 0.004 W/m/K
314.72 K	0.1006 ± 0.004 W/m/K
315.05 K	0.1008 ± 0.004 W/m/K
315.06 K	0.1007 ± 0.004 W/m/K
315.07 K	0.1005 ± 0.004 W/m/K and 0.101 ± 0.0041 W/m/K and 0.1008 ± 0.004 W/m/K
315.08 K	0.1002 ± 0.004 W/m/K
324.64 K	0.09597 ± 0.0039 W/m/K and 0.09452 ± 0.0038 W/m/K
324.66 K	0.09557 ± 0.0038 W/m/K
324.85 K	0.09515 ± 0.0038 W/m/K
324.86 K	0.09533 ± 0.0038 W/m/K
324.87 K	0.09498 ± 0.0038 W/m/K
325.28 K	0.09515 ± 0.0038 W/m/K
325.29 K	0.09565 ± 0.0039 W/m/K
325.3 K	0.09512 ± 0.0038 W/m/K

Gas
Conditions	thermal conductivity [W/m/K]
236.45 K, 86.1 kPa	0.00838 ± 0.00053
244.29 K, 84.5 kPa	0.00938 ± 0.00059
245.47 K, 132.2 kPa	0.00931 ± 0.00058
246.92 K, 132.2 kPa	0.00972 ± 0.00061
248.24 K, 132.2 kPa	0.00989 ± 0.00062
248.83 K, 84.5 kPa	0.00985 ± 0.00062
254.05 K, 84.5 kPa	0.01031 ± 0.00064
255.52 K, 201.2 kPa	0.01058 ± 0.00066
260.98 K, 132.4 kPa	0.01112 ± 0.00069
265.31 K, 286.1 kPa	0.01142 ± 0.00071
266.46 K, 286.1 kPa	0.01169 ± 0.00073
275.33 K, 370.8 kPa	0.01266 ± 0.00079
276 K, 139.9 kPa	0.01306 ± 0.00081
276.13 K, 370.8 kPa	0.01296 ± 0.00081
277.34 K, 370.8 kPa	0.01294 ± 0.0008
278.06 K, 139.9 kPa	0.01337 ± 0.00083
278.85 K, 139.9 kPa	0.01329 ± 0.00083
286.13 K, 481.4 kPa	0.01426 ± 0.00088
286.26 K, 271.3 kPa	0.01438 ± 0.00089
287.56 K, 578.8 kPa	0.01402 ± 0.00087
287.6 K, 481.4 kPa	0.01425 ± 0.00088
287.72 K, 271.3 kPa	0.01452 ± 0.0009
288.9 K, 481.4 kPa	0.01448 ± 0.0009
289.14 K, 271.3 kPa	0.0144 ± 0.00089
295.76 K, 779.2 kPa	0.01526 ± 0.00094
295.78 K, 690.7 kPa	0.0151 ± 0.00094
295.97 K, 520.7 kPa	0.01551 ± 0.00096
296.2 K, 275.3 kPa	0.01553 ± 0.00096
297.07 K, 690.7 kPa	0.01526 ± 0.00094
297.24 K, 520.7 kPa	0.01534 ± 0.00095
297.64 K, 275.3 kPa	0.01544 ± 0.00096
298.46 K, 520.7 kPa	0.01532 ± 0.00095
299.03 K, 275.3 kPa	0.01558 ± 0.00096
305.63 K, 712.7 kPa	0.01677 ± 0.001
305.93 K, 916.4 kPa	0.0163 ± 0.001
306.16 K, 227 kPa	0.01673 ± 0.001
306.42 K, 1035 kPa	0.01653 ± 0.001
306.59 K, 712.7 kPa	0.01627 ± 0.001
306.71 K, 504.3 kPa	0.01683 ± 0.001
306.93 K, 916.4 kPa	0.01663 ± 0.001
306.93 K, 1035 kPa	0.01725 ± 0.0011
306.97 K, 227 kPa	0.01654 ± 0.001
307.36 K, 1035 kPa	0.01661 ± 0.001
307.57 K, 504.3 kPa	0.01663 ± 0.001
307.89 K, 227 kPa	0.01643 ± 0.001
315.53 K, 1227.4 kPa	0.01838 ± 0.0011
315.63 K, 1202.4 kPa	0.01779 ± 0.0011
315.79 K, 316.7 kPa	0.01783 ± 0.0011
315.81 K, 1005.9 kPa	0.01828 ± 0.0011
315.87 K, 807.4 kPa	0.01738 ± 0.0011
316.01 K, 1341.3 kPa	0.01815 ± 0.0011
316.27 K, 1202.4 kPa	0.01803 ± 0.0011
316.4 K, 1005.9 kPa	0.01789 ± 0.0011
316.4 K, 1341.3 kPa	0.01835 ± 0.0011
316.53 K, 1162.6 kPa	0.01796 ± 0.0011
316.59 K, 807.4 kPa	0.01737 ± 0.0011
316.83 K, 613.8 kPa	0.01747 ± 0.0011
316.94 K, 1202.4 kPa	0.0181 ± 0.0011
317.06 K, 1341.3 kPa	0.01801 ± 0.0011
317.12 K, 1005.9 kPa	0.01811 ± 0.0011
318.31 K, 316.7 kPa	0.01787 ± 0.0011
321.99 K, 1292.4 kPa	0.01904 ± 0.0012
322.07 K, 1292.4 kPa	0.01921 ± 0.0012
322.37 K, 797.5 kPa	0.01858 ± 0.0011
322.59 K, 797.5 kPa	0.01847 ± 0.0011
323.36 K, 797.5 kPa	0.01857 ± 0.0011
324.32 K, 1700.6 kPa	0.01997 ± 0.0012
324.97 K, 1700.6 kPa	0.0202 ± 0.0013
325.27 K, 1362.6 kPa	0.01957 ± 0.0012
325.45 K, 1700.6 kPa	0.02011 ± 0.0012
326.1 K, 1362.6 kPa	0.01993 ± 0.0012
326.61 K, 1095.3 kPa	0.0197 ± 0.0012
326.64 K, 968 kPa	0.01935 ± 0.0012
326.71 K, 798.3 kPa	0.01946 ± 0.0012
326.98 K, 999.2 kPa	0.01933 ± 0.0012

Source: the NIST ThermoML archive (doi:10.1016/j.fluid.2014.04.038)
